Laboratory results taken from US9695155B2, “Herbicidal substituted pyrimidinyloxy benzene compounds” (E. I. DU PONT DE NEMOURS AND COMPANY, priority 2013, dated 2017).

Columns and labels:
kochia = assay: Test C postemergence; type: in vivo, Kochia scoparia; settings: for Plant response rating (0 to 100), Kochia / Kochia plant response rating: postemergence; for Kochia plant response rating: visual rating; for Kochia plant response rating / Plant response rating, Kochia: scale 0 to 100 (0 no effect, 100 complete control); for Plant response rating, Kochia: Postemergence
In short: (§1)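 Plants were kept under greenhouse conditions for 13–15 days following spray. Pre-emergent application went to soil (loam–sand), post-emergent to foliage at 1–4 leaves. Evaluation: visual, percent control against untreated checks.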

pigweed = assay: Test C postemergence; type: in vivo, Amaranthus retroflexus; settings: for Plant response rating, Pigweed: Postemergence
In short: as §1

velvetleaf = assay: Test C postemergence; type: in vivo, Abutilon theophrasti; settings: for Plant response rating, Velvetleaf: Postemergence
In short: as §1

large (Lg) crabgrass = assay: Test A postemergence; type: in vivo, Digitaria sanguinalis
In short: (§2)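 Greenhouse pot test, loam/sand soil. Formulation: non-phytotoxic solvent mix plus surfactant. Pre: directed spray onto soil after sowing. Post: plants at 1–2 leaf, 2–10 cm. Rated visually vs untreated controls at ~10 d, 0 (no effect) to 100 (complete control).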

chickweed = assay: Test C postemergence; type: in vivo, Stellaria media; settings: for Plant response rating (0 to 100), Chickweed / Chickweed plant response rating: postemergence; for Chickweed plant response rating: visual rating; for Chickweed plant response rating / Plant response rating, Chickweed: scale 0 to 100 (0 no effect, 100 complete control); for Plant response rating, Chickweed: Postemergence
In short: as §1

corn = assay: Test A postemergence; type: in vivo, Zea mays
In short: as §2

morningglory = assay: Test A postemergence; type: in vivo, Ipomoea spp.
In short: as §2

giant foxtail = assay: Test A postemergence; type: in vivo, Setaria faberii
In short: as §2

Italian ryegrass = assay: Test C postemergence; type: in vivo, Lolium multiflorum; settings: for Plant response rating, Ryegrass, Italian: Postemergence
In short: as §1

[1] = 8 g ai/ha, 0 is no effect, 100 is complete control
[2] = 16 g ai/ha, 0 is no effect, 100 is complete control
[3] = 8 g ai/ha, postemergence, 0 is no effect, 100 is complete control
[4] = 16 g ai/ha, postemergence, 0 is no effect, 100 is complete control
[5] = 31 g ai/ha, postemergence, visual rating, scale 0 to 100 (0 no effect, 100 complete control), 13 to 15 days
[6] = 62 g ai/ha, scale 0 to 100 (0 no effect, 100 complete control), 13 to 15 days
[7] = 1000 g ai/ha, 0 to 100 scale, 0 no effect, 100 complete control
[8] = 31 g ai/ha, scale 0 to 100 (0 no effect, 100 complete control), 13 to 15 days
[9] = 62 g ai/ha, scale 0 to 100 (0 no effect, 100 complete control)
[10] = 125 g ai/ha, 0 to 100 scale where 0 is no effect and 100 is complete control
[11] = 500 g ai/ha, 0 to 100 scale, 0 no effect, 100 complete control
[12] = 500 g ai/ha, 0 to 100 scale where 0 is no effect and 100 is complete control

Which “Plant response rating (0 to 100), Kochia” value (kochia; [1]) does the source give for `Clc1cnc(Oc2ccccc2-n2cc(I)nn2)nc1` [Compound 222] here?
The value was 60.

What about the “Plant response rating (0 to 100), Kochia” value (kochia; [2]) of the same compound?
The value was 85.

And the “Kochia plant response rating” value (kochia; 31 g ai/ha, 13 to 15 days)?
The value was 100.

And the “Plant response rating, Kochia” value (kochia; 62 g ai/ha, 13 to 15 days)?
The value was 100.

What about the “Plant response rating (0 to 100), Pigweed” value (pigweed; [3]) of the same compound?
The value was 65.

And the “Plant response rating (0 to 100), Pigweed” value (pigweed; [4])?
Its value is 70.

What about the “Pigweed plant response rating” value (pigweed; [5]) of the same compound?
The value was 80.

And the “Plant response rating, Pigweed” value (pigweed; [6])?
Its value is 85.

And the “Plant response rating (0 to 100), Velvetleaf” value (velvetleaf; [3])?
Its value is 35.

What about the “Plant response rating (0 to 100), Velvetleaf” value (velvetleaf; [4]) of the same compound?
The value was 40.

What about the “Velvetleaf plant response rating” value (velvetleaf; [5]) of the same compound?
Its value is 35.

And the “Plant response rating, Velvetleaf” value (velvetleaf; [6])?
The value was 50.

What about the “Plant response rating, Crabgrass, Large” value (large (Lg) crabgrass; [7]) of the same compound?
Its value is 100.

What about the “Plant response rating (0 to 100), Chickweed” value (chickweed; [1]) of the same compound?
The value was 10.

What about the “Plant response rating (0 to 100), Chickweed” value (chickweed; [2]) of the same compound?
Its value is 60.

And the “Chickweed plant response rating” value (chickweed; 31 g ai/ha, 13 to 15 days)?
Its value is 85.

What about the “Plant response rating, Chickweed” value (chickweed; 62 g ai/ha, 13 to 15 days) of the same compound?
The value was 100.

What about the “Plant response rating, Corn” value (corn; [7]) of the same compound?
Its value is 50.

And the “Plant response rating, Morningglory” value (morningglory; [7])?
The value was 100.

And the “Plant response rating, Foxtail, Giant” value (giant foxtail; [7])?
The value was 90.

And the “Plant response rating (0 to 100), Ryegrass, Italian” value (Italian ryegrass; [3])?
Its value is 0.

And the “Plant response rating (0 to 100), Ryegrass, Italian” value (Italian ryegrass; [4])?
The value was 0.

And the “Ryegrass, Italian plant response rating” value (Italian ryegrass; [5])?
The value was 0.

And the “Plant response rating, Ryegrass, Italian” value (Italian ryegrass; [6])?
The value was 0.

How did the “Plant response rating (0 to 100), Kochia” value (kochia; 125 g ai/ha) turn out when `Fc1cnc(Oc2ccccc2-n2cc(C(F)(F)F)cn2)nc1` [Compound 47] was run?
The value was 25.

And the “Plant response rating (0 to 100), Kochia” value (kochia; 250 g ai/ha)?
The value was 60.

What about the “Plant response rating, Kochia” value (kochia; 31 g ai/ha, 13 to 15 days) of the same compound?
The value was 5.

And the “Plant response rating, Kochia” value (kochia; 62 g ai/ha)?
The value was 10.

What about the “Plant response rating (0 to 100), Pigweed” value (pigweed; 125 g ai/ha, postemergence) of the same compound?
Its value is 65.

And the “Plant response rating (0 to 100), Pigweed” value (pigweed; 250 g ai/ha, postemergence)?
Its value is 70.

And the “Plant response rating, Pigweed” value (pigweed; [8])?
Its value is 40.

And the “Plant response rating, Pigweed” value (pigweed; [9])?
Its value is 55.

And the “Plant response rating (0 to 100), Velvetleaf” value (velvetleaf; 125 g ai/ha, postemergence)?
The value was 70.

What about the “Plant response rating (0 to 100), Velvetleaf” value (velvetleaf; 250 g ai/ha, postemergence) of the same compound?
The value was 100.

And the “Plant response rating, Velvetleaf” value (velvetleaf; [8])?
The value was 45.

What about the “Plant response rating, Velvetleaf” value (velvetleaf; [9]) of the same compound?
Its value is 50.

What about the “Plant response rating, Crabgrass, Large” value (large (Lg) crabgrass; [10]) of the same compound?
The value was 70.

What about the “Plant response rating, Crabgrass, Large” value (large (Lg) crabgrass; [11]) of the same compound?
Its value is 100.

What about the “Plant response rating (0 to 100), Chickweed” value (chickweed; 125 g ai/ha) of the same compound?
The value was 50.

And the “Plant response rating (0 to 100), Chickweed” value (chickweed; 250 g ai/ha)?
The value was 50.

What about the “Plant response rating, Chickweed” value (chickweed; 31 g ai/ha, 13 to 15 days) of the same compound?
The value was 5.

What about the “Plant response rating, Chickweed” value (chickweed; 62 g ai/ha) of the same compound?
The value was 5.

What about the “Plant response rating, Corn” value (corn; [10]) of the same compound?
The value was 40.

What about the “Plant response rating, Corn” value (corn; [11]) of the same compound?
The value was 90.

What about the “Plant response rating, Morningglory” value (morningglory; [10]) of the same compound?
Its value is 80.

What about the “Plant response rating, Morningglory” value (morningglory; [11]) of the same compound?
Its value is 100.

What about the “Plant response rating, Foxtail, Giant” value (giant foxtail; [10]) of the same compound?
Its value is 80.

What about the “Plant response rating, Foxtail, Giant” value (giant foxtail; [11]) of the same compound?
Its value is 100.

And the “Plant response rating (0 to 100), Ryegrass, Italian” value (Italian ryegrass; 125 g ai/ha, postemergence)?
Its value is 0.

What about the “Plant response rating (0 to 100), Ryegrass, Italian” value (Italian ryegrass; 250 g ai/ha, postemergence) of the same compound?
The value was 0.

What about the “Plant response rating, Ryegrass, Italian” value (Italian ryegrass; [8]) of the same compound?
The value was 0.

And the “Plant response rating, Ryegrass, Italian” value (Italian ryegrass; [9])?
Its value is 0.

How did the “Kochia plant response rating” value (kochia; 16 g ai/ha, 13 to 15 days) turn out when `FC(F)Oc1cnn(-c2ccccc2Oc2ncc(Cl)cn2)c1` [Compound 98] was run?
The value was 70.

And the “Plant response rating (0 to 100), Kochia” value (kochia; 125 g ai/ha)?
Its value is 98.

And the “Plant response rating, Kochia” value (kochia; 31 g ai/ha, 13 to 15 days)?
The value was 80.

What about the “Plant response rating, Kochia” value (kochia; 62 g ai/ha) of the same compound?
Its value is 90.

What about the “Plant response rating (0 to 100), Pigweed” value (pigweed; 125 g ai/ha, postemergence) of the same compound?
The value was 75.

And the “Plant response rating, Pigweed” value (pigweed; [8])?
The value was 75.

And the “Plant response rating, Pigweed” value (pigweed; [9])?
Its value is 75.

And the “Plant response rating (0 to 100), Velvetleaf” value (velvetleaf; 125 g ai/ha, postemergence)?
The value was 90.

What about the “Plant response rating, Velvetleaf” value (velvetleaf; [8]) of the same compound?
Its value is 50.

And the “Plant response rating, Velvetleaf” value (velvetleaf; [9])?
Its value is 70.

What about the “Plant response rating, Crabgrass, Large” value (large (Lg) crabgrass; [10]) of the same compound?
The value was 80.

What about the “Plant response rating, Crabgrass, Large” value (large (Lg) crabgrass; [12]) of the same compound?
The value was 100.

And the “Chickweed plant response rating” value (chickweed; 16 g ai/ha, 13 to 15 days)?
Its value is 30.

And the “Plant response rating (0 to 100), Chickweed” value (chickweed; 125 g ai/ha)?
The value was 85.

What about the “Plant response rating, Chickweed” value (chickweed; 31 g ai/ha, 13 to 15 days) of the same compound?
Its value is 50.

What about the “Plant response rating, Chickweed” value (chickweed; 62 g ai/ha) of the same compound?
Its value is 75.

What about the “Plant response rating, Corn” value (corn; [10]) of the same compound?
The value was 40.

What about the “Plant response rating, Corn” value (corn; [12]) of the same compound?
The value was 70.

And the “Plant response rating, Morningglory” value (morningglory; [12])?
The value was 100.

What about the “Plant response rating, Foxtail, Giant” value (giant foxtail; [10]) of the same compound?
The value was 80.

What about the “Plant response rating, Foxtail, Giant” value (giant foxtail; [12]) of the same compound?
The value was 90.

What about the “Plant response rating (0 to 100), Ryegrass, Italian” value (Italian ryegrass; 125 g ai/ha, postemergence) of the same compound?
The value was 25.

And the “Plant response rating, Ryegrass, Italian” value (Italian ryegrass; [8])?
The value was 0.

And the “Plant response rating, Ryegrass, Italian” value (Italian ryegrass; [9])?
Its value is 5.
